Measured values: publication PMC9917560, “Design, Synthesis and Antimicrobial Evaluation of New N-(1-Hydroxy-1,3-dihydrobenzo[c][1,2]oxaborol-6-yl)(hetero)aryl-2-carboxamides as Potential Inhibitors of Mycobacterial Leucyl-tRNA Synthetase” (International Journal of Molecular Sciences, 2023)
Like-named read-outs stand apart in the source and are kept apart here.

Experiments:
[1] = system: Acinetobacter baumannii DSM 30007 (ATCC 19606); test: Antibacterial microdilution broth (EUCAST); type: cell-based; settings: read-out: MIC Acinetobacter baumannii
[2] = system: Candida parapsilosis CCM 8260 (ATCC 22019); test: Antifungal microdilution broth (EUCAST); type: cell-based; settings: Lodderomyces parapsilosis, read-out: MIC Candida parapsilosis
[3] = system: Staphylococcus epidermidis CCM 4418 (ATCC 12228); test: Antibacterial microdilution broth (EUCAST); type: cell-based; settings: read-out: MIC Staphylococcus epidermidis
[4] = system: Lichtheimia corymbifera CCM 8077; test: Antifungal microdilution broth (EUCAST); type: cell-based; settings: Lichtheimia corymbifera, read-out: MIC Lichtheimia corymbifera
[5] = system: Mycobacterium tuberculosis H37Ra ITM-M006710 (ATCC 9431); test: Antimycobacterial microdilution (resazurin) vs Mtb H37Ra; type: cell-based
[6] = system: Enterococcus faecalis CCM 4224 (ATCC 29212); test: Antibacterial microdilution broth (EUCAST); type: cell-based; settings: read-out: MIC Enterococcus faecalis
[7] = system: Pseudomonas aeruginosa CCM 3955 (ATCC 27853); test: Antibacterial microdilution broth (EUCAST); type: cell-based; settings: read-out: MIC Pseudomonas aeruginosa
[8] = system: Candida krusei CCM 8271 (ATCC 6258); test: Antifungal microdilution broth (EUCAST); type: cell-based; settings: Pichia kudriavzevii, read-out: MIC Candida krusei
[9] = system: Staphylococcus aureus subsp. aureus CCM 4223 (ATCC 29213); test: Antibacterial microdilution broth (EUCAST); type: cell-based; settings: read-out: MIC Staphylococcus aureus subsp. aureus
[10] = system: Aspergillus fumigatus ATCC 204305; test: Antifungal microdilution broth (EUCAST); type: cell-based; settings: Aspergillus fumigatus, read-out: MIC Aspergillus fumigatus
[11] = system: Mycobacterium kansasii DSM 44,162 (ATCC 12478); test: Antimycobacterial microdilution (resazurin) vs M. kansasii; type: cell-based; settings: read-out: MIC M. kansasii
[12] = system: Candida tropicalis CCM 8264 (ATCC 750); test: Antifungal microdilution broth (EUCAST); type: cell-based; settings: read-out: MIC Candida tropicalis
[13] = system: Escherichia coli CCM 3954 (ATCC 25922); test: Antibacterial microdilution broth (EUCAST); type: cell-based; settings: Escherichia coli, read-out: MIC Escherichia coli
[14] = system: Mycobacterium avium DSM 44,156 (ATCC 25291); test: Antimycobacterial microdilution (resazurin) vs M. avium; type: cell-based; settings: Mycobacterium avium, Middlebrook 7H9, resazurin; read-out: MIC M. avium
[15] = system: HepG2 cell line; test: Cytotoxicity screening, CellTiter 96 assay; settings: for IC50: Homo sapiens, HepG2, 24 h, read-out: IC50 HepG2
[16] = system: Aspergillus flavus CCM 8363; test: Antifungal microdilution broth (EUCAST); type: cell-based; settings: Aspergillus flavus, read-out: MIC Aspergillus flavus
[17] = system: methicillin-resistant Staphylococcus aureus subsp. aureus (MRSA) CCM 4750 (ATCC 43300); test: microbe, parasite or virus in culture; type: cell-based; settings: read-out: MIC Methicillin-resistant Staphylococcus aureus subsp. aureus
[18] = system: Klebsiella pneumoniae CCM 4415 (ATCC 10031); test: Antibacterial microdilution broth (EUCAST); type: cell-based; settings: Klebsiella pneumoniae, read-out: MIC Klebsiella pneumoniae
[19] = system: Mycolicibacterium smegmatis DSM 43,465 (ATCC 607); test: Antimycobacterial microdilution (resazurin) vs M. smegmatis; type: cell-based; settings: Middlebrook 7H9, resazurin, read-out: MIC M. smeg.
[20] = system: Mycolicibacterium aurum DSM 43,999 (ATCC 23366); test: Antimycobacterial microdilution (resazurin) vs M. aurum; type: cell-based; settings: read-out: MIC M. aurum
[21] = system: Trichophyton interdigitale CCM 8377 (ATCC 9533); test: Antifungal microdilution broth (EUCAST); type: cell-based; settings: Trichophyton interdigitale, read-out: MIC Trichophyton interdigitale
[22] = system: Candida albicans CCM 8320 (ATCC 24433); test: Antifungal microdilution broth (EUCAST); type: cell-based; settings: Candida albicans, read-out: MIC Candida albicans
[23] = system: Mycobacterium tuberculosis H37Rv CNCTC My 331/88 (ATCC 27294); test: Microplate Alamar Blue assay vs Mtb H37Rv; type: cell-based; settings: Mycobacterium tuberculosis

O=C(Nc1ccc2c(c1)B(O)OC2)c1ccc(Cl)s1 [Compound 15, 5-chloro-N-(1-hydroxy-1,3-dihydrobenzo[c][1,2]oxaborol-6-yl)thiophene-2-carboxamide]
106 µM: MIC ([11]; Middlebrook 7H9, resazurin)
> 500 µM: MIC ([1]; 24h incubation) | MIC ([1]; 48h incubation) | MIC ([2]; 24h incubation) | MIC ([2]; 48h incubation) | MIC ([4]; CCM8077, 24h incubation) | MIC ([4]; CCM8077, 48h incubation) | MIC ([6]; 24h incubation) | MIC ([6]; 48h incubation) | MIC ([7]; 24h incubation) | MIC ([7]; 48h incubation) | MIC ([8]; 24h incubation) | MIC ([8]; 48h incubation) | MIC ([10]; ATCC204305, 24h incubation) | MIC ([10]; ATCC204305, 48h incubation) | MIC ([12]; 24h incubation) | MIC ([12]; 48h incubation) | MIC ([13]; 24h incubation) | MIC ([13]; 48h incubation) | MIC ([16]; CCM8363, 24h incubation) | MIC ([16]; CCM8363, 48h incubation) | MIC ([18]; 24h incubation) | MIC ([18]; 48h incubation) | MIC ([21]; 72h incubation) | MIC ([21]; 120h incubation) | MIC ([22]; 24h incubation) | MIC ([22]; 48h incubation)
53.2 µM: MIC ([5]; Middlebrook 7H9, resazurin, recalculated from µg/mL, read-out: MIC Mtb H37Ra) | MIC [20]
234.9 to 237.1 °C: melting point
500 µM: MIC ([3]; 24h incubation) | MIC ([3]; 48h incubation) | MIC ([9]; 24h incubation) | MIC ([9]; 48h incubation) | MIC ([17]; 24 h) | MIC ([17]; 48 h)
210 µM: IC50 [15]
42.6 µM: MIC ([23]; pH 6.6, MABA, Middlebrook 7H9 pH 6.6, recalculated from µg/mL, read-out: MIC Mtb H37Rv)
426 µM: MIC [14]
852 µM: MIC [19]

Nc1ncc(Cl)nc1C(=O)Nc1ccc2c(c1)B(O)OC2 [Compound 7, 3-amino-6-chloro-N-(1-hydroxy-1,3-dihydrobenzo[c][1,2]oxaborol-6-yl)pyrazine-2-carboxamide]
> 125 µM: MIC ([1]; 24 h) | MIC ([1]; 48 h) | MIC ([2]; 24 h) | MIC ([2]; 48 h) | MIC ([3]; 24 h) | MIC ([3]; 48 h) | MIC ([4]; CCM8077, 24 h) | MIC ([4]; CCM8077, 48 h) | MIC ([6]; 24 h) | MIC ([6]; 48 h) | MIC ([7]; 24 h) | MIC ([7]; 48 h) | MIC ([8]; 24 h) | MIC ([8]; 48 h) | MIC ([9]; 24 h) | MIC ([9]; 48 h) | MIC ([10]; ATCC204305, 24 h) | MIC ([10]; ATCC204305, 48 h) | MIC ([12]; 24 h) | MIC ([12]; 48 h) | MIC ([13]; 24 h) | MIC ([13]; 48 h) | MIC ([16]; CCM8363, 24 h) | MIC ([16]; CCM8363, 48 h) | MIC ([17]; 24 h) | MIC ([17]; 48 h) | MIC ([18]; 24 h) | MIC ([18]; 48 h) | MIC ([21]; 72 h) | MIC ([21]; 120 h) | MIC ([22]; 24 h) | MIC ([22]; 48 h)
242.9 to 244.4 °C: melting point
> 1850 µM: MIC ([5]; read-out: MIC Mtb H37Ra, Middlebrook 7H9, resazurin, recalculated from µg/mL) | MIC [11] | MIC [20]
> 100 µM: IC50 [15]
> 328 µM: MIC ([23]; pH 6.6, read-out: MIC Mtb H37Rv, MABA, Middlebrook 7H9 pH 6.6, recalculated from µg/mL)
411 µM: MIC [14] | MIC [19]
non-toxic: toxicity to HepG2 up to highest tested concentration ([15]; tested up to 500 µM (2, 3), 250 µM (12, 17), 100 µM (6, 7, 11) because of solubility)
